The test system of data set [1] is CHO–K1 cells. Briefly: Seahorse XF-96 OCR dose response of 15 uncouplers (Figure 2). The data set is classed as cell-based, Cricetulus griseus. Particulars: for EC50: mean OCR (% basal) over first 24 min post injection, ± standard error, four-parameter fit.
Protocol: Stock solutions of the uncouplers and/or Rotenone/Antimycin A were diluted in Seahorse media to give the final concentration indicated in Figure 1, Figure 2, Figure 3 with 0.4% (v/v) DMSO in wells.
Another data set deals with rat hepatocytes. Further details: method as in PMID 15037196, PMID 8726330. Particulars: cited from earlier work.
Data set [2] has as its system CHO–K1 cells. Briefly: OCR in the absence or presence of oligomycin (Supplementary Fig. 6). The data set is classed as cell-based, Cricetulus griseus. Particulars: 1 μM oligomycin, uncoupler at lowest concentration yielding MaxOCR. As for the experimental part: ATP synthase is the major conduit through which protons re-enter the mitochondrial matrix. Thus, we sought to investigate whether the selected uncouplers could stimulate oxygen consumption in the presence of the ATP synthase inhibitor oligomycin.
Supplementary Figure 6. […] At ~24 minutes, 1 μM of oligomycin or vehicle was injected, followed by the injection of the indicated uncoupler or vehicle at ~44 minutes, and 0.5 μM Rotenone / Antimycin A at ~88 minutes.

The test system of a further data set is Swiss mice. Further details: method as in PMID 18505478. To be noted: ∼30–105 μg/kg/day in drinking water; cited from earlier work.
The subject of the next data set is humans. Particulars: cited from earlier work.
Data set [3] concerns Arabidopsis thaliana cells. Further details: method as in PMID 22006339. To be noted: cited from earlier work.
Data set [4] in a line: Drug exposure / pharmacokinetics after oral gavage. Particulars: male, C57BL/6J, mouse, plasma, 10 mg/kg.
Protocol: Standards were prepared by spiking known concentrations (0.1, 1, 10, 100 and 1000 ng) of the uncoupler into whole blood prior to extraction. Plasma was obtained by centrifugation at 2000×g for 10 min at 4 °C. Seven microlitres (7 μL) of plasma was precipitated in 100 μL of 90% (v/v) acetonitrile and 10% (v/v) methanol. The resulting solution was vortexed for 5 s and then centrifuged at 21,130×g for 10 min at 4 °C. The supernatant was collected in auto-sampler vials for mass spectrometry.
Plasma concentration of mitochondrial uncouplers at indicated timepoints was determined by LC-MS/MS. Error bars show SEM, n = 3 per mitochondrial uncoupler.
The test system of the next data set is db/db mice. Briefly: Four-week treatment by admixture in chow, metabolic phenotyping. To be noted: 4 weeks.

Like-named read-outs stand apart in the source and are kept apart here.

Protocol for db/db mice: Body weight and glucose tolerance of male db/+ and db/db mice was assessed at 8–9 weeks of age to obtain baseline measurements. Db/+ were used as lean metabolically healthy controls and given ad libitum access to chow diet. Db/db mice were stratified into 12 groups using R (V4.4.0).
Mice were on treatment for a period of four weeks, during which body weight and food intake were measured daily. […] To counter this, food traps were placed beneath hoppers and leftover food in both the traps and hoppers was weighed daily. HbA1c was measured weekly. At the end of the treatment period, a glucose tolerance test was conducted, with fed and fasted bloods collected. At termination, blood was collected via cardiac puncture under isoflurane anaesthesia. Mice were euthanised by cervical dislocation and harvested tissues were flash-frozen in liquid nitrogen and stored at −80 °C.
Mice were fasted for 6 h and then received intraperitoneal injections of 20% (w/v) dextrose at a dose of 1 g/kg lean body mass. Blood glucose (BG) was measured at the time of fasting (random-fed BG) and then again prior to the commencement of the GTT following the 6-hour daytime fast (fasted BG). […] The rate of glucose clearance was measured using the trapezoidal method for calculation of area under the curve.
HbA1c was measured once weekly using an A1cNow + Portable HbA1c Test Kit. […] HbA1c was measured in the random-fed state.
A glucose tolerance test was conducted at the end of the treatment period, with random fed and 6-hour fasted bloods collected. Blood was collected in heparin tubes and kept on ice prior to centrifugation at 2000×g for 10 min at 4 °C to extract plasma. Plasma insulin concentration was determined using the Crystal Chem Ultra-Sensitive Mouse Insulin ELISA kit, according to manufacturers' instructions for the high range (1–64 ng/mL) assay.

As for `CC(=O)C1=C(O)C=C2Oc3c(C(C)=O)c(O)c(C)c(O)c3[C@@]2(C)C1=O` [UsAc, (+)-usnic acid], the “OCR at 31.6 μM” value in the data set with CHO–K1 cells [1] (CHO–K1, 31.6 μM) is ~125 % basal. The “Concentration inducing decline in OCR to sub-basal levels” value in the data set with CHO–K1 cells [1] (CHO–K1, after ∼40 min of treatment) was “over 31.6 μM”. Besides, in the data set with CHO–K1 cells [1] (Cricetulus griseus, 0.4 h, CHO–K1, read-out: EC50 (increase of OCR)), the EC50 was found to be 430 ± 120 nM. The Concentrations acutely toxic entry with rat hepatocytes was “(+)-usnic acid (UsAc) • UsAc has not been tested in mouse models of metabolic disease. Concentrations of 2–5 μM UsAc are acutely toxic to rat hepatocytes [84, 85]. • UsAc is found in the unregulated weight-loss supplement LipoKinetix [86]”. For the same molecule, the “Effect of oligomycin on uncoupler-stimulated OCR” value (from here on “Effect of oligomycin”) in the data set on CHO–K1 cells [2] is given as “largely unaffected by the presence of oligomycin”.

As to `O=[N+]([O-])c1ccc(O)c([N+](=O)[O-])c1` [DNP, 2,4-Dinitrophenol], in the data set on Swiss mice, the Lifespan extension was 7%. In the data set with humans, the “Body weight lost per week” value was 1.5 kg and the Weight loss is recorded as ≤ 1.5 kg/week. For the same molecule, in the data set with humans (for every 100 mg ingested), the “Increase in metabolic rate” value is on record as 11%. Moreover, the “MaxOCR lower than that seen with BAM15” value in the data set on CHO–K1 cells [1] (CHO–K1, Figure 2) was ~27%. Further, the EC50 in the data set with CHO–K1 cells [1] (Cricetulus griseus, CHO-K1, 0.4 h, read-out: EC50 (increase of OCR), CHO–K1) is 17000 ± 1180 nM. Besides, the EC50 in the data set with CHO–K1 cells [1] (read-out: EC50 (increase of OCR), CHO–K1) amounted to 17000 nM. Also, in the data set with CHO–K1 cells [2], the “Effect of oligomycin” value is listed as “largely unaffected by the presence of oligomycin”.

Take `O=[N+]([O-])c1ccc(NS(=O)(=O)c2ccc(Br)s2)cc1` [ES9, Endosidin 9]: the “Concentration increasing respiration (as low as)” value in data set [3] is “Endosidin 9 (ES9) • ES9 has not been tested in mouse models of metabolic disease. It was identified in a chemical library screen for inhibitors of endomembrane trafficking and increased respiration in Arabidopsis thaliana cells at concentrations as low as 1 μM [71]”. This molecule also returned a Cmax in data set [4] of 72.3 µM. Also, in the data set with CHO–K1 cells [1] (CHO–K1, read-out: EC50 (increase of OCR)), the EC50 was 1600 nM. Also, in the data set with CHO–K1 cells [1] (CHO–K1, tested 0.32–200 μM), the “Concentration range with sustained enhanced OCR (OCR ≥ 150% basal)” value was ≤ 100 µM. In the data set with CHO–K1 cells [1] (Cricetulus griseus, CHO-K1, 0.4 h, CHO–K1, read-out: EC50 (increase of OCR)), the EC50 was 1610 ± 410 nM. The “Effect of oligomycin” value in the data set on CHO–K1 cells [2] was “largely unaffected by the presence of oligomycin”. Further, the “Gastrocnemius weight vs control” value with db/db mice (0.015% in chow) is recorded as “significantly larger gastrocnemius”. Also, in the data set on db/db mice (0.03% in chow), the “Gastrocnemius weight vs control” value was “significantly larger gastrocnemius”, the “Increase of total liver cholesterol content vs db/db control” value is on record as ~1.7 fold and the “Post-treatment GTT AUC lower than control group” value is reported as ~35%. Also, in the data set with db/db mice (0.15% BAM15, 0.02% OPC-163493, 0.015% and 0.03% ES9, NTZ and NEN both doses), the “Body weight / weight gain vs db/db controls” value is reported as “non-significant trend for increased weight gain”. In the data set on db/db mice (0.15% and 0.2% BAM15, printed 0.3% ES9), the “GTT ΔAUC (post minus pre-treatment)” value is “statistically significant protection from worsening glucose tolerance”. In addition, in the data set with db/db mice (NEN both doses, 0.01% OPC, 0.015% ES9, 0.2% NTZ), the “Blood glucose, HbA1c, glucose tolerance vs control” value is recorded as “did not have significantly lower random-fed or 6-hour fasted blood glucose”. For the same molecule, the “HbA1c” value with db/db mice (both doses of BAM15, printed 0.3% ES9, 0.4% NTZ) is “lowered HbA1c levels”. For the same molecule, the “Fasting and random fed blood glucose” value in the data set with db/db mice (either dose of BAM15, high dose ES9, high dose NTZ) is “partial efficacy”. Besides, in the data set on db/db mice (high dose ES9 (0.03%)), the “Increase of liver triglyceride concentration vs db/db controls” value is ~2.7 fold and the “Increase of total liver triglyceride content vs db/db controls” value was ~3.4 fold. Besides, in the data set with db/db mice (lower dose ES9 (0.015%)), the “Liver triglyceride concentration vs db/db controls” value is listed as “significantly increased liver triglyceride concentration”. Besides, the “Increase in liver wet weight vs db/db control” value with db/db mice (printed 0.3% ES9 in chow) was ~25%.

As usually defined, the EC50 is the concentration that produces a half-maximal response. As usually defined, the Cmax is the highest concentration seen after dosing.

Values taken from PMC12303080, “Diverse actions of 15 structurally unrelated mitochondrial uncouplers in cells and mice” (Molecular Metabolism, 2025).
